According to patent US20260284011A1, “COMPOUNDS FOR RESTORING SUSCEPTIBILITY TO BETA-LACTAM ANTIBIOTICS” (UNIVERSITY OF NOTRE DAME DU LAC, priority 2023, published 2026):

How the values were obtained:
NRS144 strain = assay: MIC of the inducer CBAP; type: cell-based, Staphylococcus aureus
[1] = system: modified bla operons (pCN52RI, pCN52RI-venus, pCN52RI-mCherry); assay: Induction of fluorescent reporters of the bla operon by CBAP; type: cell-based, S. aureus NRS144
From the text: FIG. 4. Comparison of the fluorescence intensity produced by S. aureus NRS144 strains harboring pCN52RI, pCN52RI-venus and pCN52RI-mCherry. Each fluorescent protein was induced by the β-lactam antibiotic CBAP. The ratios of fluorescence in the presence of CBAP to that in the absence of it were 3, 10 and 5 for GFP, Venus, and mCherry, respectively. Data were derived from four independent assays.
(§1) Live-Cell Fluorescent Assay in Discovery and Mechanism of Action. We conceived of fluorescent constructs in the bla operon, for the purpose of screening (FIG. 2a). We removed the gene for the β-lactamase (blaZ) and put in its place individually the genes for the Green Fluorescent Protein (GFP), Venus (a yellow-fluorescent protein) or mCherry (a red-fluorescent protein) in the template plasmid pCN52. The three plasmids were named pCN52RI, pCN52RI-Venus and pCN52RI-mCherry, respectively. The genes for the fluorescent proteins were transcribed under the promoter of the blaZ gene and were regulated by the proteins BlaR and BlaI, as is the case for the wild-type bla operon.
(§2) We transformed separately S. aureus NRS144—a laboratory strain that accepts a foreign gene and harbors neither the bla nor the mec operons—with each of these plasmids. […] When induced, the fluorescent protein is produced and is detected (akin to expression of the resistance genes blaZ or mecA in typical MSSA and MRSA). […] The transformed strains were grown in tryptic soy broth medium for overnight culture and strain maintenance and incubated in cation-adjusted Mueller-Hinton broth medium for inhibitor screening in a 96-well microplate format. The culture without CBAP addition was the negative control. In order to select a desirable reporter construct, we compared the intensity of the fluorescence produced from each construct at the wavelengths given in FIG. 2a using the Cytation-5 multi-mode microplate reader. Among the three constructs, pCN52RI-Venus produced the best fluorescence intensity and pCN52RI-mCherry was the second best (FIG. 4).
Construction of the fluorescent-reporter systems. […]

BlaR = BlaR (Staphylococcus aureus, UniProt P18357); assay: Live-cell fluorescent assay for BlaR inhibition (Venus reporter); type: cell-based, S. aureus NRS144pCN52RI-Venus; settings: compound at 100 mg/L^−1; CBAP 10 mg·L^−1; fluorescence after 2 h
From the text: as §1, §2
(§3) The collection of the 100 compounds from the in-silico search was screened against S. aureus NRS144pCN52RI-Venus. The screening strategy was as follows. Bacteria grown to OD600 of 0.25 were exposed concurrently to CBAP (10 mg·L^−1) and the test compound (100 mg·L^−1). Fluorescence was recorded after two hours of incubation. OD600 values were also recorded to identify compounds with inherent antibacterial activity. Compound 1 (Chart 1) emerged—82% diminished fluorescence as an indication of the extent of BlaR inhibition—as a suitable template for structure elaboration. This effort led to the synthesis of several dozen benzimidazole and imidazole compounds. The progression of the iterative design is depicted in Chart 1 for four compounds, culminating in 4. […] The X-ray structures for the complexes of compounds 2 (non-covalent) and 4 (covalent) with the BlaR sensor domain are shown respectively in FIG. 2b (2.0 Å resolution) and FIG. 2c (1.97 Å resolution). Compound 4 makes a covalent bond with the catalytic Ser389 and creates a network of hydrogen bonds with the BlaR active site (FIG. 2c).
(§4) Fluorescent assay for screening of BlaR potential inhibitors. A 3-mL portion of lysogeny broth (LB) medium was inoculated with NRS144pCN52RI Venus from frozen stocks and grown overnight at 37° C. The overnight culture was then diluted 1:150 fold with fresh LB containing […] of erythromycin and incubated at 37° C. to an OD600 of 0.3, at which point fluorescence was induced by the addition of CBAP to a final concentration of 10 μg·mL^−1. The culture was aliquoted (99 L) into 96-well plate and 1 L of inhibitor solution (1 mg·mL^−1 in DMSO) was added to each well. Negative control (DMSO without CBAP) and positive control (CBAP without inhibitor) were included. The plate was incubated at 30° C. for 2 h with intermittent shaking. Fluorescence and OD600 measurements were taken by a Cytation-5 multimode microplate reader. Percent inhibition of BlaR and bacterial growth were calculated using absorbance unit (AU) and OD600 values of each sample entered into this formula: […]

[2] = system: S. aureus NRS144pCN52RI-Venus; assay: Bacterial growth inhibition (OD600) in the fluorescent screening assay; type: cell-based, Staphylococcus aureus; settings: compound at 100 mg/L^−1; OD600 after 2 h
Experimental: as §3, §4

S. aureus = assay: Potentiation of β-lactams by cyclic boronate β-lactamase inhibitors; type: cell-based, Staphylococcus aureus

BlaR, sequence (P18357 whole entry): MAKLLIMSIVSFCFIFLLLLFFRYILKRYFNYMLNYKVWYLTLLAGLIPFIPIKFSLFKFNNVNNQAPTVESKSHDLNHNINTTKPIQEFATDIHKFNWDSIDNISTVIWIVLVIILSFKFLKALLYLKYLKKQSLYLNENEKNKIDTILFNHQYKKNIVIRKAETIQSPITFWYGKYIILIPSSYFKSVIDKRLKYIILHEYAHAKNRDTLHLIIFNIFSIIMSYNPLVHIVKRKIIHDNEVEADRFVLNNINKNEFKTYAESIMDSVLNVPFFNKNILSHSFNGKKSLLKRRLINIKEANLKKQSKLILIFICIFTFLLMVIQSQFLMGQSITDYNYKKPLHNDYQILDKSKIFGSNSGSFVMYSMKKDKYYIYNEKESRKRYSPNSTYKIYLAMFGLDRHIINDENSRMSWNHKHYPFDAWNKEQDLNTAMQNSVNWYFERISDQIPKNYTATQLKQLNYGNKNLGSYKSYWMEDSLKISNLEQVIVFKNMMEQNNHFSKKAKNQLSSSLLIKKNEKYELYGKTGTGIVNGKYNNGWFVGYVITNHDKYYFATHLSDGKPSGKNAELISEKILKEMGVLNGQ

Compound	% Inhibition of BlaR (BlaR) [%]	% Inhibition of bacterial growth [2] [%]	other results
2-(2-carboxyphenyl)-benzoyl-6-aminopenicillanic acid [CBAP]			minimal-inhibitory concentration (MIC) (NRS144 strain): 64 µg/mL; ratio of fluorescence in the presence of CBAP to that in the absence ([1]; GFP (pCN52RI)): 3; ratio of fluorescence in the presence of CBAP to that in the absence ([1]; Venus (pCN52RI-venus)): 10; ratio of fluorescence in the presence of CBAP to that in the absence ([1]; mCherry (pCN52RI-mCherry)): 5
OB(O)Cc1nc2ccccc2n1Cc1ccc(C(F)(F)F)cc1C(F)(F)F [Compound 42]	99	82	
OB(O)CCc1nc2ccccc2n1Cc1ccc(C(F)(F)F)cc1C(F)(F)F [Compound 46]	0	49	
NCc1cn(Cc2ccc(C(F)(F)F)cc2C(F)(F)F)c(=S)[nH]1 [Compound 48]	50	90	
NSc1nc([C@H](O)[C@H](O)CO)cn1Cc1ccccc1 [Compound 52]	33	0	
O=S(=O)(O)c1nccn1Cc1ccc(C(F)(F)F)cc1C(F)(F)F [Compound 54]	18	0	
N#Cc1cn(Cc2ccc(C(F)(F)F)cc2C(F)(F)F)cn1 [Compound 55]	0	0	
O=S(=O)(Cl)c1nc(CO)cn1Cc1ccc(C(F)(F)F)cc1C(F)(F)F [Compound 57]	83	0	
OCc1cn(Cc2ccc(C(F)(F)F)cc2C(F)(F)F)c(Cl)n1 [Compound 58]	43	0	
O=S(=O)(O)c1nc(CO)cn1Cc1ccc(C(F)(F)F)cc1C(F)(F)F [Compound 60]	0	0	
NCc1cn(Cc2ccc(C(F)(F)F)cc2C(F)(F)F)c(S(=O)(=O)O)n1 [Compound 63]	50	18	
CC(C)(C)OC(=O)NCc1cn(Cc2ccc(C(F)(F)F)cc2C(F)(F)F)c(S(=O)(=O)O)n1 [Compound 64]	75	40	
COc1ccc(CSc2nc(CNC(=O)OCc3ccccc3)cn2Cc2ccc(C(F)(F)F)cc2C(F)(F)F)cc1 [Compound 65]	19	0	
O=C(O)c1cn(Cc2ccc(C(F)(F)F)cc2C(F)(F)F)c(S(=O)(=O)O)n1 [Compound 72]	11	0	
OCC1NC(=S)N(Cc2ccc(C(F)(F)F)cc2C(F)(F)F)N1 (centres unmarked) [Compound 77]	71	30	
OCc1nn(Cc2ccc(C(F)(F)F)cc2C(F)(F)F)c(=S)[nH]1 [Compound 78]	70	56	
OCC1NC(=S)N(c2ccc(C(F)(F)F)cc2)N1 (centres unmarked) [Compound 79]	75	65	
NCCN[C@H]1CC[C@H](CC(=O)N[C@H]2Cc3cccc(C(=O)O)c3OB2O)CC1 [taniborbactam]			potentiation of the anti-S. aureus activities of MEM, OXA, FOX and CPT (S. aureus): no activity
O=C(O)C[C@@H]1CC[C@H](NC(=O)Cc2cccs2)B(O)O1 [vaborbactam]			potentiation of the anti-S. aureus activities of MEM, OXA, FOX and CPT (S. aureus): no activity
